Assay results taken from paper PMC12177060, “Blocking XIAP:CASP7-p19 selectively induces apoptosis of CASP3/DR malignancies by a novel reversible small molecule” (Cell Death & Disease, 2025).

Biological target: T1, CASP7 (Homo sapiens, UniProt P55210)
T1 construct: human CASP7 cDNA in pET28a, C-terminal 6-His tag, E. coli BL21(DE3), Ni-NTA purified; active processed form, MW 70 kDa hetero-tetramer (p19/p12)
T1 sequence (P55210 24-198): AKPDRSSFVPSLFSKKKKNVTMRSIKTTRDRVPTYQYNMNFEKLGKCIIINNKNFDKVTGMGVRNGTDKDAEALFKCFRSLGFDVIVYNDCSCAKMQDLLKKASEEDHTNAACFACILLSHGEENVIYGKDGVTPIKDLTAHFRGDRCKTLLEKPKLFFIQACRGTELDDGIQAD
T1 sequence (P55210 207-303): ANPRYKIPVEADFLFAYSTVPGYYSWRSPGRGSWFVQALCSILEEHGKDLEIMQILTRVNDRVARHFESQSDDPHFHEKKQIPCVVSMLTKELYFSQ
Assay: SPR (BIAcore), His-tagged CASP7 immobilised on NiNTA chip
Type: binding
Settings: allosteric site near Cys246/Asp93 (proposed), reversible; 2.5, 5 or 10 μM injected

Kd: 3.1 µM
Structure (SMILES): COc1cc2c(-c3ccc(O)cc3)nc3c(c(C)nn3-c3ccccc3)c2cc1OC [compound 643943, 643943]
